Columns and labels:
[1] = Inhibition of Metallo-beta-lactamase NDM-1 (unknown origin) expressed in Escherichia coli BL21 (DE3) assessed as substrate hydrolysis using imipenem as substrate by spectrometric analysis; parameters: species or system Bacteria
[2] = Inhibition of metallo-beta-lactamase IMP-1 (unknown origin) expressed in Escherichia coli BL21 (DE3) assessed as substrate hydrolysis using imipenem as substrate by spectrometric analysis; parameters: species or system Bacteria
[3] = Inhibition of metallo-beta-lactamase ImiS (unknown origin) expressed in Escherichia coli BL21 (DE3) assessed as substrate hydrolysis using imipenem as substrate by spectrometric analysis; parameters: species or system Bacteria
[4] = Inhibition of wild type metallo-beta-lactamase IMP-1 (unknown origin) assessed as inhibition constant using nitrocefin as substrate preincubated with compound followed by substrate addition and measured for 60 sec by spectroscopic analysis; parameters: species or system Bacteria
[5] = Inhibition of Escherichia coli metallo-beta-lactamase NDM-1 assessed as substrate hydrolysis using cefazolin as substrate preincubated for 12 hrs followed by substrate by UV-Vis spectrophotometric analysis
[6] = Inhibition of Metallo-beta-lactamase NDM-1 in Escherichia coli BL21 assessed as inhibition constant using nitrocefin as substrate preincubated for 20 mins followed by substrate and measured after 30 mins by spectrophotometric analysis
[7] = Inhibition of Bacillus cereus II metallo-beta-lactamase using nitrocefin as substrate incubated for 5 mins by spectrophotometric analysis
[8] = Inhibition of Metallo-beta-lactamase NDM-1 in Escherichia coli BL21 (DE3) assessed as substrate hydrolysis using cefazolin as substrate preincubated for 20 hrs followed by substrate by spectrometric analysis

Row | IC50 [1] | IC50 [2] | IC50 [3] | SMILES | further results
1 | 120 nM | 950 nM | 3700 nM | S=C(SSC(=S)N1CCCC1)N1CCCC1 [BIS(PYRROLIDINYLTHIOCARBONYL)DISULFIDE] | 
2 |  |  |  | O=C(CCSC(=O)CCS)Oc1c(F)c(F)c(F)c(F)c1F | Ki [4]: 420 nM
3 | 260 nM | 530 nM | 1800 nM | CCCCN(CCCC)C(=S)SSC(=S)N(CCCC)CCCC | 
4 |  |  |  | O=C(O)C(=O)CBr [BROMOPYRUVATE] | IC50 [5]: 2570 nM
5 | 130 nM | 2900 nM | 3600 nM | CCN(CC)C(=S)SSC(=S)N(CC)CC [DISULFIRAM] | 
6 |  |  |  | O=c1c2ccccc2[se]n1-c1ccccc1 [EBSELEN] | Ki [6]: 380 nM
7 |  |  |  | C[C@@H](NC(=O)Cc1ccccc1)C(=O)SCC(=O)O | IC50 [7]: 479000 nM
8 |  |  |  | O=C(CCS)Oc1c(F)c(F)c(F)c(F)c1F | Ki [4]: 3450 nM
9 |  |  |  | C[C@@H](NC(=O)c1ccccc1)C(=O)SCC(=O)O | IC50 [7]: 645000 nM
10 |  |  |  | O=c1c2ccccc2sn1-c1ccccc1 | IC50 [8]: 160 nM

Row | SMILES | IC50 [1] | IC50 [2] | IC50 [3] | further results
11 | S=C(SSC(=S)N(Cc1ccccc1)Cc1ccccc1)N(Cc1ccccc1)Cc1ccccc1 [BIS(DIBENZYLAMINETHIOCARBONYL)DISULFIDE] | 320 nM | 1700 nM | 2600 nM | 
12 | S=C(SSC(=S)N1CCCCC1)N1CCCCC1 [BIS(PIPERIDINYLTHIOCARBONYL)DISULFIDE] | 140 nM | 880 nM | 490 nM | 

From ChEMBL document CHEMBL5230097, “Structure-based design of covalent inhibitors targeting metallo-β-lactamases” (Eur J Med Chem, 2020)
